In ChEMBL document CHEMBL1144852, “Optimization of a dihydropyrrolopyrazole series of transforming growth factor-beta type I receptor kinase domain inhibitors: discovery of an orally bioavailable transforming growth factor-beta receptor type I inhibitor as antitumor agent” (J Med Chem, 2008):

Tests used:
[1] = Metabolic stability in rat microsomes; type: ADME, Microsome; note: time not given here
[2] = test system: Caco-2; assay: Permeability from apical to basolateral side of human Caco-2 cell membrane; type: ADME, cell-based
[3] = test system: NIH3T3; assay: Antiproliferative activity against mouse NIH3T3 cells by [3H]thymidine assay; type: functional, cell-based
[4] = test system: Liver microsomes; assay: Metabolic stability in human liver microsomes; type: ADME, Microsome; note: time not given here
[5] = biological target: Cyclin-dependent kinase 1 (Homo sapiens) (UniProt P06493); assay: Inhibition of CDK1 at 20 uM
[6] = biological target: Serine/threonine-protein kinase N2 (Homo sapiens) (UniProt Q16513); assay: Inhibition of PRK2 at 20 uM
[7] = biological target: Ribosomal protein S6 kinase beta-1 (Homo sapiens) (UniProt P23443); assay: Inhibition of p70S6K at 20 uM
[8] = biological target: Serine/threonine-protein kinase Sgk1 (Homo sapiens) (UniProt O00141); assay: Inhibition of SGK at 20 uM
[9] = biological target: Mitogen-activated protein kinase 14 (Homo sapiens) (UniProt Q16539); assay: Inhibition of Sapk2-alpha at 20 uM
[10] = biological target: Mitogen-activated protein kinase 12 (Homo sapiens) (UniProt P53778); assay: Inhibition of Sapk3 at 20 uM
[11] = Inhibition of CK2 at 20 uM
[12] = biological target: Mitogen-activated protein kinase 13 (Homo sapiens) (UniProt O15264); assay: Inhibition of Sapk4 at 20 uM
[13] = biological target: Cyclin-dependent kinase 2 (Homo sapiens) (UniProt P24941); assay: Inhibition of CDK2 at 20 uM
[14] = biological target: Dual specificity mitogen-activated protein kinase kinase 4 (Homo sapiens) (UniProt P45985); assay: Inhibition of MKK4 at 20 uM
[15] = biological target: MAP kinase-activated protein kinase 2 (Homo sapiens) (UniProt P49137); assay: Inhibition of MAPKAPK2 at 20 uM
[16] = biological target: Dual specificity mitogen-activated protein kinase kinase 6 (Homo sapiens) (UniProt P52564); assay: Inhibition of MKK6 at 20 uM
[17] = biological target: Protein kinase C delta type (Homo sapiens) (UniProt Q05655); assay: Inhibition of PKCdelta at 20 uM
[18] = biological target: Mitogen-activated protein kinase 10 (Homo sapiens) (UniProt P53779); assay: Inhibition of JNK3 at 20 uM
[19] = biological target: Proto-oncogene tyrosine-protein kinase Src (Homo sapiens) (UniProt P12931); assay: Inhibition of cSRC at 20 uM
[20] = biological target: Mitogen-activated protein kinase 11 (Homo sapiens) (UniProt Q15759); assay: Inhibition of Sapk2-beta at 20 uM
[21] = biological target: Serine/threonine-protein kinase Chk2 (Homo sapiens) (UniProt O96017); assay: Inhibition of Chk2 at 20 uM
[22] = biological target: Vascular endothelial growth factor receptor 2 (Homo sapiens) (UniProt P35968); assay: Inhibition of KDR at 20 uM
[23] = biological target: RAC-alpha serine/threonine-protein kinase (Homo sapiens) (UniProt P31749); assay: Inhibition of PKBalpha at 20 uM
[24] = biological target: Glycogen synthase kinase-3 beta (Homo sapiens) (UniProt P49841); assay: Inhibition of GSK3-beta at 20 uM
[25] = biological target: Serine/threonine-protein kinase Chk1 (Homo sapiens) (UniProt O14757); assay: Inhibition of Chk1 at 20 uM
[26] = biological target: Tyrosine-protein kinase Fyn (Homo sapiens) (UniProt P06241); assay: Inhibition of Fyn at 20 uM
[27] = test system: Mus musculus; assay: Inhibition of TGFbeta type receptor 1 in human Calu6 cells xenografted mouse at 50 mg/kg, po by single point IVTI assay; type: functional, Calu-6; design: scale not given: the % may be the effect or the level left
[28] = biological target: Rho-associated protein kinase 2 (Homo sapiens) (UniProt O75116); assay: Inhibition of Rock2 at 20 uM
[29] = biological target: MAP kinase-activated protein kinase 5 (Homo sapiens) (UniProt Q8IW41); assay: Inhibition of PRAK at 20 uM
[30] = biological target: Protein kinase C alpha type (Homo sapiens) (UniProt P17252); assay: Inhibition of PKCalpha at 20 uM
[31] = biological target: Tyrosine-protein kinase Lck (Homo sapiens) (UniProt P06239); assay: Inhibition of Lck at 20 uM
[32] = biological target: RAF proto-oncogene serine/threonine-protein kinase (Homo sapiens) (UniProt P04049); assay: Inhibition of cRaf at 20 uM
[33] = Inhibition of PKA at 20 uM
[34] = biological target: Dual specificity mitogen-activated protein kinase kinase 7 (Homo sapiens) (UniProt O14733); assay: Inhibition of MKK7-beta at 20 uM
[35] = biological target: Mitogen-activated protein kinase 1 (Homo sapiens) (UniProt P28482); assay: Inhibition of MAPK1 at 20 uM
[36] = biological target: Tyrosine-protein kinase ZAP-70 (Homo sapiens) (UniProt P43403); assay: Inhibition of ZAP70 at 20 uM
[37] = biological target: 5'-AMP-activated protein kinase subunit beta-1 (Homo sapiens) (UniProt Q9Y478); assay: Inhibition of AMPK at 20 uM
[38] = biological target: Protein kinase C beta type (Homo sapiens) (UniProt P05771); assay: Inhibition of PKC-beta-2 at 20 uM
[39] = Inhibition of CaMK2 at 20 uM
[40] = biological target: Ribosomal protein S6 kinase alpha-5 (Homo sapiens) (UniProt O75582); assay: Inhibition of MSK1 at 20 uM
[41] = biological target: Tyrosine-protein kinase Blk (Homo sapiens) (UniProt P51451); assay: Inhibition of Blk at 20 uM
[42] = biological target: Dual specificity mitogen-activated protein kinase kinase 1 (Homo sapiens) (UniProt Q02750); assay: Inhibition of Mek1 at 20 uM
[43] = test system: Mus musculus; assay: Inhibition of TGFbeta type receptor 1 in orally dosed human Calu6 cells xenografted mouse by IVTI […] assay; type: functional, organism-based; conditions: Calu-6
[44] = Inhibition of JNK1-alpha at 20 uM
[45] = biological target: Fibroblast growth factor receptor 3 (Homo sapiens) (UniProt P22607); assay: Inhibition of FGFR3 at 20 uM
[46] = biological target: Mitogen-activated protein kinase 9 (Homo sapiens) (UniProt P45984); assay: Inhibition of JNK2-alpha-2 at 20 uM
[47] = biological target: TGF-beta receptor type-1 (Homo sapiens, UniProt P36897, T204D); assay: Inhibition of TGFbeta type receptor 1 ALK5 (T204D) expressed in Sf9 cells
[48] = Antiproliferative activity against mink Mv1Lu-p3TP-Lux cells by luciferase reporter assay; type: functional, cell-based, Neovison vison; conditions: Neogale vison

Chain of Ribosomal protein S6 kinase alpha-5 (Homo sapiens) (O75582 whole entry, looked up): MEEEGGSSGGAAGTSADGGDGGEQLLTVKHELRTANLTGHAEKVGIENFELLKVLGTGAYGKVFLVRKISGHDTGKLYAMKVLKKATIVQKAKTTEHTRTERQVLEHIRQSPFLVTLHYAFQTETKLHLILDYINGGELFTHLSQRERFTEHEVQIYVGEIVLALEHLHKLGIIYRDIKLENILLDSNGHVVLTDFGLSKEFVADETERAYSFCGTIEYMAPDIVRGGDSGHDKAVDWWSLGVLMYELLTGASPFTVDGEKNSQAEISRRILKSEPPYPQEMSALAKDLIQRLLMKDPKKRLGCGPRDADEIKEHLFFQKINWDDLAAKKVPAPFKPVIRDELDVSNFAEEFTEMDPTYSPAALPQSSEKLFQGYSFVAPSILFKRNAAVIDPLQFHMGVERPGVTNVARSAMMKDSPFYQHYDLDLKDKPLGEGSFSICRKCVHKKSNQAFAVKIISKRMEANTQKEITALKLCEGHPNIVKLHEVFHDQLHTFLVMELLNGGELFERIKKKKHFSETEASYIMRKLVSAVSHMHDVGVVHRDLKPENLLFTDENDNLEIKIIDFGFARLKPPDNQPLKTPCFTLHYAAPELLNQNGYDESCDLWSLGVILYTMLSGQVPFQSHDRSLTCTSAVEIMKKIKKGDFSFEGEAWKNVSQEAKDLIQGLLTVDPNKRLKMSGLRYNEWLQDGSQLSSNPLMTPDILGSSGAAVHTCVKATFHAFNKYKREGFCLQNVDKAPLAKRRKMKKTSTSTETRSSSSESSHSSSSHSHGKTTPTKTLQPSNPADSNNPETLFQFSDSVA
Chain of Tyrosine-protein kinase Fyn (Homo sapiens) (P06241 2-537 limits assumed): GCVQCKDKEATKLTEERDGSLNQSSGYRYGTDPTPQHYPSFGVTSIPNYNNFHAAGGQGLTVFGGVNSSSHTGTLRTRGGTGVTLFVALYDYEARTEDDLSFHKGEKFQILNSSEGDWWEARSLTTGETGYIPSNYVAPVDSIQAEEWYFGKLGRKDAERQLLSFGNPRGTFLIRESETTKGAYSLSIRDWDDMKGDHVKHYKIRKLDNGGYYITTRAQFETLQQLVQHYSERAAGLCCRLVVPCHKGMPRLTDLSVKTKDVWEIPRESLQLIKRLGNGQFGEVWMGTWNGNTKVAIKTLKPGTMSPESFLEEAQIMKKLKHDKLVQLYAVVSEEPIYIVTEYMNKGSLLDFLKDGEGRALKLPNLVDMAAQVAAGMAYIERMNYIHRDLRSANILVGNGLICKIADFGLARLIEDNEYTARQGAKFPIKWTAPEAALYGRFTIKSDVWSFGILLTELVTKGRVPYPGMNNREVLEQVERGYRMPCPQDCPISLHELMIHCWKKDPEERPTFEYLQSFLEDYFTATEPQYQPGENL
Chain of Mitogen-activated protein kinase 11 (Homo sapiens) (Q15759 whole entry): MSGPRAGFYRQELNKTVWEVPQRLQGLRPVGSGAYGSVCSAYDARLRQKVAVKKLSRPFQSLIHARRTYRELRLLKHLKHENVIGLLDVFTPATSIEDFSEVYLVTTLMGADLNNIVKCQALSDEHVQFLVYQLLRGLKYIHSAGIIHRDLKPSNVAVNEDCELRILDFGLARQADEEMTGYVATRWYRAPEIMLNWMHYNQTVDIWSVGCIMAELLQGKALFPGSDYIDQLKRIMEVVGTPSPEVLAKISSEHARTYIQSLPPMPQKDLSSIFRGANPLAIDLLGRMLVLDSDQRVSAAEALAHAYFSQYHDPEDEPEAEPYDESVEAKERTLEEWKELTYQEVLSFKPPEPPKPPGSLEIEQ
Chain of Mitogen-activated protein kinase 10 (Homo sapiens) (P53779 whole entry): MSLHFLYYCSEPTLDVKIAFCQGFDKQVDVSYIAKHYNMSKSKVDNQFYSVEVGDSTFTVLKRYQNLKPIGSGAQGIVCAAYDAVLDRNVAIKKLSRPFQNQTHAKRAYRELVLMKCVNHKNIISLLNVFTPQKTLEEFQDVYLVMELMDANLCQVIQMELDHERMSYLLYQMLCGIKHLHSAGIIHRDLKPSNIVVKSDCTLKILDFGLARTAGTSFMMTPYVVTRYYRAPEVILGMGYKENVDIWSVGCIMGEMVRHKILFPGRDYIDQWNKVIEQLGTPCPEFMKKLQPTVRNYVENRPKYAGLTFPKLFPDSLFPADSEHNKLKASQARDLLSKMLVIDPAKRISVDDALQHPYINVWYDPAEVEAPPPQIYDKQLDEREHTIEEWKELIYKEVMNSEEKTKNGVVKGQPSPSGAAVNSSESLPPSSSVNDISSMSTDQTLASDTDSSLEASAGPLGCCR
Chain of Serine/threonine-protein kinase Chk2 (Homo sapiens) (O96017 whole entry): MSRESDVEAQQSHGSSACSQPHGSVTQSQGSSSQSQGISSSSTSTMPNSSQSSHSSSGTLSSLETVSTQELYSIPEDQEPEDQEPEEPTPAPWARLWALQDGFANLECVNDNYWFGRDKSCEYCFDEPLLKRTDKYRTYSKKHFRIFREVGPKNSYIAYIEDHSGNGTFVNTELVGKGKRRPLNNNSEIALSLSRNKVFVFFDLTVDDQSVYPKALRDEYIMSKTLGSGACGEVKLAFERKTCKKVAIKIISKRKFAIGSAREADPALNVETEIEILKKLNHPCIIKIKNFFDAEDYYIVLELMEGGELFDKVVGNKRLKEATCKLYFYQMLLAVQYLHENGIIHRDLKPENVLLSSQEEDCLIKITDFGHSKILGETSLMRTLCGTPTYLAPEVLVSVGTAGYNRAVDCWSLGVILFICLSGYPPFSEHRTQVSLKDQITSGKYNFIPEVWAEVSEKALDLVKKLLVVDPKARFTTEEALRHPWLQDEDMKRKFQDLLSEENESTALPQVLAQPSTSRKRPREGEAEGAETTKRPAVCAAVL
Chain of Rho-associated protein kinase 2 (Homo sapiens) (O75116 whole entry, looked up): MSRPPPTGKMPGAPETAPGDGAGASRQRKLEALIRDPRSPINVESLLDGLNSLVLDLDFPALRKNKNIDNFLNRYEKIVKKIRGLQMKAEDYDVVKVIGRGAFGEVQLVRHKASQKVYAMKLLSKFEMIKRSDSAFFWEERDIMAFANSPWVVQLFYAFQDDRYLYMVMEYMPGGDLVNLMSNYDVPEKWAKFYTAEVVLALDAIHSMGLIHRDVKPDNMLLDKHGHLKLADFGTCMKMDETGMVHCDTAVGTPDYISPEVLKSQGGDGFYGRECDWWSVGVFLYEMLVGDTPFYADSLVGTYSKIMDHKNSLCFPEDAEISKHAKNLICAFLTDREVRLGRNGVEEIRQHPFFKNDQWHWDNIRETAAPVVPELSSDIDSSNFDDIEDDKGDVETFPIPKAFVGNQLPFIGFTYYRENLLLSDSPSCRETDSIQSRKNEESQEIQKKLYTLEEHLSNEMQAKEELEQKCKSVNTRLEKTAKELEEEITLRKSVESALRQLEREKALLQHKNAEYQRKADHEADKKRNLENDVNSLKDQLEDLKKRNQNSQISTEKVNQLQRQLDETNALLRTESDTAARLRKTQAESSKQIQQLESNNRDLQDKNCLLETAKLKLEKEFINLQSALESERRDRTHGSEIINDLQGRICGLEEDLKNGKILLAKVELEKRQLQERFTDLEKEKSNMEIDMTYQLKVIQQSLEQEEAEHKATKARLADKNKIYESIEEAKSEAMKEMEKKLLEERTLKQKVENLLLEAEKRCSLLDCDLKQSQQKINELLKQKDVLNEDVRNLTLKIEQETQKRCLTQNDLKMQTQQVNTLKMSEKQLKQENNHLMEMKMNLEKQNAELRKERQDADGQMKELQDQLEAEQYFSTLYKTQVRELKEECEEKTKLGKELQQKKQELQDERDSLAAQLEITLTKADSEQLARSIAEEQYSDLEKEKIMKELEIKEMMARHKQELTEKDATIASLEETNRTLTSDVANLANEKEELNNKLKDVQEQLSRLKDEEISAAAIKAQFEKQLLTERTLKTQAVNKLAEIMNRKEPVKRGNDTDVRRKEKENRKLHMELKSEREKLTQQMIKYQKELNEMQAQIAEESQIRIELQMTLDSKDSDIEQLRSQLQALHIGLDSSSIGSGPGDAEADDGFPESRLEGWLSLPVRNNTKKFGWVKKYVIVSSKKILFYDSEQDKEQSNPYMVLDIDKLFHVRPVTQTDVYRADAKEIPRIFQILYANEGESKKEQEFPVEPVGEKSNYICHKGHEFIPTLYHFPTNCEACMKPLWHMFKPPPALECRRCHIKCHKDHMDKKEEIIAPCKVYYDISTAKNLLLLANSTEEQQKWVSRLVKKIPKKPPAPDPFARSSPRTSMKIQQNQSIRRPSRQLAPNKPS
Chain of MAP kinase-activated protein kinase 5 (Homo sapiens) (Q8IW41 whole entry): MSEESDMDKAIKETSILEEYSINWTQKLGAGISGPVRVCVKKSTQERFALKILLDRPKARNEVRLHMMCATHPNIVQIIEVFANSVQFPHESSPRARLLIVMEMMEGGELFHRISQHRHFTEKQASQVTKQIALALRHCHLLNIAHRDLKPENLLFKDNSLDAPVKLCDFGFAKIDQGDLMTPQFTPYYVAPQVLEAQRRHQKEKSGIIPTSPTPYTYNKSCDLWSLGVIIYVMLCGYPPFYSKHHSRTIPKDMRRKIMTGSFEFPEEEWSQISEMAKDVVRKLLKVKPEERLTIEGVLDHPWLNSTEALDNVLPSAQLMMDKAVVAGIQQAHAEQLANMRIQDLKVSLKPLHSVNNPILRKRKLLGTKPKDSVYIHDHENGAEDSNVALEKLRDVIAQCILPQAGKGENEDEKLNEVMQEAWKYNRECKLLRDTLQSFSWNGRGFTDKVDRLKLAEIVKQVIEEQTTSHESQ
Chain of MAP kinase-activated protein kinase 2 (Homo sapiens) (P49137 whole entry, looked up): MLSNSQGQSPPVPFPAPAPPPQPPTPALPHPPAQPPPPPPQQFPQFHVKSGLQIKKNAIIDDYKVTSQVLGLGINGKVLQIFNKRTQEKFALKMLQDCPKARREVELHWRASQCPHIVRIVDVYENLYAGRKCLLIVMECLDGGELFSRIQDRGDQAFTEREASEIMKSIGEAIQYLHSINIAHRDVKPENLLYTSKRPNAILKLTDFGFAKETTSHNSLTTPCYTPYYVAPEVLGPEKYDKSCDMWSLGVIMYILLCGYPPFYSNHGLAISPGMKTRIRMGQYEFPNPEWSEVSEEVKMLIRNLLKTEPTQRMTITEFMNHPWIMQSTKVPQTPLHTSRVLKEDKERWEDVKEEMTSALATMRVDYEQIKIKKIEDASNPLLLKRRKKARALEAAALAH

With `c1ccc(-c2n[nH]cc2-c2ccnc3ccccc23)nc1` the Stability [1] was 98%, the permeability [2] was 76% and the IC50 [3] was 81 nM. For the same compound, the Stability [4] was 22%.

With `CN(C)CCOc1ccc2c(-c3c(-c4ccccn4)nn4c3CCC4)ccnc2c1` the inhibition [5] was < 50%, the inhibition [6] was < 50% and the inhibition [7] was < 50%. The inhibition [8] was < 50%, the inhibition [9] was 87% and the Stability [1] was 60%. The inhibition [10] was < 50%, the inhibition [11] was < 50% and the inhibition [12] was < 50%. The inhibition [13] was < 50%, the inhibition [14] was < 50% and the inhibition [15] was < 50%. The inhibition [16] was 62%, the inhibition [17] was < 50% and the inhibition [18] was 51%. For the same compound, the inhibition [19] was < 50%, the inhibition [20] was 29% and the inhibition [21] was < 50%. The permeability [2] was 28%, the inhibition [22] was < 50% and the inhibition [23] was < 50%. For the same compound, the inhibition [24] was < 50%, the inhibition [25] was < 50% and the inhibition [26] was 18%. The Activity [27] was 59%, the inhibition [28] was < 50% and the inhibition [29] was < 50%. The inhibition [30] was < 50%, the inhibition [31] was 81% and the inhibition [32] was < 50%. The inhibition [33] was < 50%, the inhibition [34] was < 50% and the inhibition [35] was 30%. For the same compound, the inhibition [36] was < 50%, the inhibition [37] was < 50% and the IC50 [3] was 98 nM. The inhibition [38] was < 50%, the inhibition [39] was < 50% and the inhibition [40] was < 50%. For the same compound, the inhibition [41] was < 50%, the inhibition [42] was < 50% and the EC50 [43] was 310 nM. For the same compound, the inhibition [44] was < 50%, the inhibition [45] was < 50% and the inhibition [46] was < 50%.

In the case of `ClCCOc1ccc2c(-c3c(-c4ccccn4)nn4c3CCC4)ccnc2c1`, the Stability [1] is reported as 99%, the IC50 [47] is reported as 33 nM and the permeability [2] is reported as 54%. The IC50 [3] was 97 nM, the Stability [4] was 99% and the IC50 [48] was 66 nM.

In the case of `Clc1cc(-c2c(-c3ccccn3)nn3c2CCC3)c2ccccc2n1`, the IC50 [47] is reported as 19800 nM, the IC50 [3] is reported as > 20000 nM and the IC50 [48] is reported as > 20000 nM.

With `COc1cc(OC)c2nccc(-c3c(-c4cccc(C)n4)nn4c3CCC4)c2c1` the IC50 [47] was 3810 nM, the IC50 [3] was > 20000 nM and the IC50 [48] was 7200 nM.

`Oc1ccc2c(-c3c(-c4ccccn4)nn4c3CCC4)ccnc2c1` showed an IC50 [47] of 160 nM, an IC50 [3] of 420 nM and an IC50 [48] of 200 nM.

With `CN1CCN(CCOc2ccc3c(-c4c(-c5ccccn5)nn5c4CCC5)ccnc3c2)CC1` the IC50 [47] was 100 nM, the Activity [27] was 73% and the IC50 [3] was 54 nM. The EC50 [43] was 919 nM and the IC50 [48] was 38 nM.
